{"source": "paper PMC6886798", "about": "“Expression of myeloid Src-family kinases is associated with poor prognosis in AML and influences Flt3-ITD kinase inhibitor acquired resistance” (PLoS ONE, 2019)", "assay_in_all_cases": "KINOMEscan", "format_in_all_cases": "binding", "settings_in_all_cases": "1.0 µM", "key": {"[1]": {"biological_target": "T1, ABL1(F317I)-nonphosphorylated (Homo sapiens, UniProt P00519, F317I)", "T1 construct": "purchased Eurofins/DiscoverX KINOMEscan scanMAX", "protocol": "(§1) Kinase retention to the immobilized ligand is then measured using quantitative real-time PCR for each kinase-specific DNA barcode."}, "[2]": {"biological_target": "T2, ABL1(Q252H)-phosphorylated (Homo sapiens, UniProt P00519, Q252H)", "T2 construct": "purchased Eurofins/DiscoverX KINOMEscan scanMAX", "protocol": "as §1"}, "ACVRL1": {"biological_target": "T3, ACVRL1 (Homo sapiens, UniProt P37023)", "T3 construct": "purchased Eurofins/DiscoverX KINOMEscan scanMAX", "T3 sequence (P37023 22-503)": "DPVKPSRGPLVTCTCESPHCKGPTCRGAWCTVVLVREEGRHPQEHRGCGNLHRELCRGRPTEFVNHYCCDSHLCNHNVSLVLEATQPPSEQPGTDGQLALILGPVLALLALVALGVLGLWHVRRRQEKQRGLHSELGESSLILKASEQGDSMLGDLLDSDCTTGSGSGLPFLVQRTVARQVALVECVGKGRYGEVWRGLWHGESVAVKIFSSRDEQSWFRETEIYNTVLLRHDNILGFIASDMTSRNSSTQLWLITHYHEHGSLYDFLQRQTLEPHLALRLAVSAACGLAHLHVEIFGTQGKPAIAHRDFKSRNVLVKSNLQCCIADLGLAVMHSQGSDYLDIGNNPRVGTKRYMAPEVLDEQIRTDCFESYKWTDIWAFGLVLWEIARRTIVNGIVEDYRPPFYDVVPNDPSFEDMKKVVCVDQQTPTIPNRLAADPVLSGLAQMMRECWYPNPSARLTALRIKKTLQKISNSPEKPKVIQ", "protocol": "as §1"}, "ADCK3": {"biological_target": "T4, ADCK3 (Homo sapiens, UniProt Q8NI60)", "T4 construct": "purchased Eurofins/DiscoverX KINOMEscan scanMAX", "T4 sequence (Q8NI60 163-647)": "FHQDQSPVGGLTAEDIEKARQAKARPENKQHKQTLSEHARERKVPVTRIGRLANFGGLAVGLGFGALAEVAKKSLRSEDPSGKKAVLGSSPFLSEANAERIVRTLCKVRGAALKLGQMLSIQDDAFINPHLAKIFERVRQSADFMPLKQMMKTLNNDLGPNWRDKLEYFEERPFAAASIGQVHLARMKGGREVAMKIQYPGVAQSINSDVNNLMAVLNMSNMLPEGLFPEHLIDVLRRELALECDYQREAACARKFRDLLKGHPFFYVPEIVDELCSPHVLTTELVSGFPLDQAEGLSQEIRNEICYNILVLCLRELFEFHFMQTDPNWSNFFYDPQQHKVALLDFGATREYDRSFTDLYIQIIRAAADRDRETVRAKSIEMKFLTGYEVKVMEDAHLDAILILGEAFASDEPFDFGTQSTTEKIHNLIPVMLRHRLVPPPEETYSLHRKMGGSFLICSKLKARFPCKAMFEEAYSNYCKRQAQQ", "protocol": "as §1"}, "AKT3": {"biological_target": "T5, AKT3 (Homo sapiens, UniProt Q9Y243)", "T5 construct": "purchased Eurofins/DiscoverX KINOMEscan scanMAX", "protocol": "as §1"}, "AXL": {"biological_target": "T6, AXL (Homo sapiens, UniProt P30530)", "T6 construct": "purchased Eurofins/DiscoverX KINOMEscan scanMAX", "protocol": "as §1"}, "BLK": {"biological_target": "T7, BLK (Homo sapiens, UniProt P51451)", "T7 construct": "purchased Eurofins/DiscoverX KINOMEscan scanMAX", "protocol": "as §1"}, "BRSK2": {"biological_target": "T8, BRSK2 (Homo sapiens, UniProt Q8IWQ3)", "T8 construct": "purchased Eurofins/DiscoverX KINOMEscan scanMAX", "protocol": "as §1"}, "CASK": {"biological_target": "T9, CASK (Homo sapiens, UniProt O14936)", "T9 construct": "purchased Eurofins/DiscoverX KINOMEscan scanMAX", "protocol": "as §1"}, "CDK9": {"biological_target": "T10, CDK9 (Homo sapiens, UniProt P50750)", "T10 construct": "purchased Eurofins/DiscoverX KINOMEscan scanMAX", "protocol": "as §1"}, "CSNK1A1L": {"biological_target": "T11, CSNK1A1L (Homo sapiens, UniProt Q8N752)", "T11 construct": "purchased Eurofins/DiscoverX KINOMEscan scanMAX", "protocol": "as §1"}, "DAPK1": {"biological_target": "T12, DAPK1 (Homo sapiens, UniProt P53355)", "T12 construct": "purchased Eurofins/DiscoverX KINOMEscan scanMAX", "protocol": "as §1"}, "DDR1": {"biological_target": "T13, DDR1 (Homo sapiens, UniProt Q08345)", "T13 construct": "purchased Eurofins/DiscoverX KINOMEscan scanMAX", "T13 sequence (Q08345 19-913)": "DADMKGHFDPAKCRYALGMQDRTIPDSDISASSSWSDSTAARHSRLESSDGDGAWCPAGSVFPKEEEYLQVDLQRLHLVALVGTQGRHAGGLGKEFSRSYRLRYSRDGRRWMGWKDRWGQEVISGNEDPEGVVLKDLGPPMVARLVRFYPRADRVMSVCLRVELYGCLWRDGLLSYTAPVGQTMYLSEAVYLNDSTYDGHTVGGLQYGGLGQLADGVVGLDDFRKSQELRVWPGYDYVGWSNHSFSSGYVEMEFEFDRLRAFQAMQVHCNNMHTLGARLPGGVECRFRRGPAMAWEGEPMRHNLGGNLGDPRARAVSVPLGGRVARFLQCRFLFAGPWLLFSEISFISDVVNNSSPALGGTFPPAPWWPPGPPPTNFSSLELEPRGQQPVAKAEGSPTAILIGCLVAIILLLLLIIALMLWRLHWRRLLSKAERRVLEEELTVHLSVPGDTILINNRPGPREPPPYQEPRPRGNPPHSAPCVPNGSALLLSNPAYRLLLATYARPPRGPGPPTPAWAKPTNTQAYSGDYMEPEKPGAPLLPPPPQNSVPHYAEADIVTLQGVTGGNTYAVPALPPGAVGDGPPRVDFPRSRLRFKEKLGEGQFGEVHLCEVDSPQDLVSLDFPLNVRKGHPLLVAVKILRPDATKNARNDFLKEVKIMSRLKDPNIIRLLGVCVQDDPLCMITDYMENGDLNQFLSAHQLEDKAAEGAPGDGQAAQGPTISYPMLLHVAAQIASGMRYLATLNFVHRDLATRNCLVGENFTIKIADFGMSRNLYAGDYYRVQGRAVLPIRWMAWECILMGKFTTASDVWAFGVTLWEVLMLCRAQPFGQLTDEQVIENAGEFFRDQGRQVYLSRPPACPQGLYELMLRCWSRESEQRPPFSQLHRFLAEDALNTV", "protocol": "as §1"}, "FLT3(D835Y)": {"biological_target": "T14, FLT3(D835Y) (Homo sapiens, UniProt P36888, D835Y)", "T14 construct": "purchased Eurofins/DiscoverX KINOMEscan scanMAX", "protocol": "as §1"}, "FLT3(R834Q)": {"biological_target": "T15, FLT3(R834Q) (Homo sapiens, UniProt P36888, R834Q)", "T15 construct": "purchased Eurofins/DiscoverX KINOMEscan scanMAX", "protocol": "as §1"}, "FRK": {"biological_target": "T16, FRK (Homo sapiens, UniProt P42685)", "T16 construct": "purchased Eurofins/DiscoverX KINOMEscan scanMAX", "protocol": "as §1"}, "GRK1": {"biological_target": "T17, GRK1 (Homo sapiens, UniProt Q15835)", "T17 construct": "purchased Eurofins/DiscoverX KINOMEscan scanMAX", "protocol": "as §1"}, "IKK-alpha": {"biological_target": "T18, IKK-alpha (Homo sapiens, UniProt O15111)", "T18 construct": "purchased Eurofins/DiscoverX KINOMEscan scanMAX", "protocol": "as §1"}, "IKK-epsilon": {"biological_target": "T19, IKK-epsilon (Homo sapiens, UniProt Q14164)", "T19 construct": "purchased Eurofins/DiscoverX KINOMEscan scanMAX", "protocol": "as §1"}, "IRAK1": {"biological_target": "T20, IRAK1 (Homo sapiens, UniProt P51617)", "T20 construct": "purchased Eurofins/DiscoverX KINOMEscan scanMAX", "protocol": "as §1"}, "[3]": {"biological_target": "T21, JAK3(JH1domain-catalytic) (Homo sapiens, UniProt P52333)", "T21 construct": "JAK3(JH1domain-catalytic); purchased Eurofins/DiscoverX KINOMEscan scanMAX", "T21 sequence (P52333 813-1124 limits assumed)": "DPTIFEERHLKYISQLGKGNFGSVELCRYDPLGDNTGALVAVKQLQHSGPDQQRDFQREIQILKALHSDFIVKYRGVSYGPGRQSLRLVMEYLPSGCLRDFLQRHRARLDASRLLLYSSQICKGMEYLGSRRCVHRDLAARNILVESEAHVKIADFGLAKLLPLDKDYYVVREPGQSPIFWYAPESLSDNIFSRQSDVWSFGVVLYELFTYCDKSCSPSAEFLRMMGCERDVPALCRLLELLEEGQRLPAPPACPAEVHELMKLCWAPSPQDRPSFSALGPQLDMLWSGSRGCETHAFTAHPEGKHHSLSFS", "protocol": "as §1"}, "LOK": {"biological_target": "T22, LOK (Homo sapiens, UniProt O94804)", "T22 construct": "purchased Eurofins/DiscoverX KINOMEscan scanMAX", "protocol": "as §1"}, "MAP4K3": {"biological_target": "T23, MAP4K3 (Homo sapiens, UniProt Q8IVH8)", "T23 construct": "purchased Eurofins/DiscoverX KINOMEscan scanMAX", "protocol": "as §1"}, "MERTK": {"biological_target": "T24, MERTK (Homo sapiens, UniProt Q12866)", "T24 construct": "purchased Eurofins/DiscoverX KINOMEscan scanMAX", "T24 sequence (Q12866 21-999)": "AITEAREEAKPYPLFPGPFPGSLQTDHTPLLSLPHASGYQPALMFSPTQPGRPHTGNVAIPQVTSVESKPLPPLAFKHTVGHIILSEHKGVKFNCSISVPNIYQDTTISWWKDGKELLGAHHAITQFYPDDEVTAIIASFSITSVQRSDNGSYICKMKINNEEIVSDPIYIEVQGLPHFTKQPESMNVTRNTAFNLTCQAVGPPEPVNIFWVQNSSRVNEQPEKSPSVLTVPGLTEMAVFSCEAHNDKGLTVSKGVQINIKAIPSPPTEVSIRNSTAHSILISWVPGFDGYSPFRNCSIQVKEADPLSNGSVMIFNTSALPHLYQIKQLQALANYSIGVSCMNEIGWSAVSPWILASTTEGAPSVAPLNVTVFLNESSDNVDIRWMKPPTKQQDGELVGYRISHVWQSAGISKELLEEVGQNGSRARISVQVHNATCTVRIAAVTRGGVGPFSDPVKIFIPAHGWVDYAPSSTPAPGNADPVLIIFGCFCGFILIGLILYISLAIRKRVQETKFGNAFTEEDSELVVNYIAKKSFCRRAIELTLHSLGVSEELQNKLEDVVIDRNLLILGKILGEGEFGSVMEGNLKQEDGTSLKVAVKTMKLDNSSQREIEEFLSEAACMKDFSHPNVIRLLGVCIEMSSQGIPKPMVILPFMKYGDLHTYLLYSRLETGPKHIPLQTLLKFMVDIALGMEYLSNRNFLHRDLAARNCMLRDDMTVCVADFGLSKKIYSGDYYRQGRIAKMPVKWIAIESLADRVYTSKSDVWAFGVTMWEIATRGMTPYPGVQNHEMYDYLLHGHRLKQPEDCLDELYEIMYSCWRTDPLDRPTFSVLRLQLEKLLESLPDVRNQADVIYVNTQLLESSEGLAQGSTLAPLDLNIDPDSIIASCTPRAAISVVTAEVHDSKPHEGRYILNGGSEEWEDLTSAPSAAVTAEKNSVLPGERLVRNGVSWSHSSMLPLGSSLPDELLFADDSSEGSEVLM", "protocol": "as §1"}, "MRCKA": {"biological_target": "T25, MRCKA (Homo sapiens, UniProt Q5VT25)", "T25 construct": "purchased Eurofins/DiscoverX KINOMEscan scanMAX", "protocol": "as §1"}, "NEK10": {"biological_target": "T26, NEK10 (Homo sapiens, UniProt Q6ZWH5)", "T26 construct": "purchased Eurofins/DiscoverX KINOMEscan scanMAX", "protocol": "as §1"}, "NEK5": {"biological_target": "T27, NEK5 (Homo sapiens, UniProt Q6P3R8)", "T27 construct": "purchased Eurofins/DiscoverX KINOMEscan scanMAX", "protocol": "as §1"}, "NIK": {"biological_target": "T28, NIK (Homo sapiens, UniProt Q99558)", "T28 construct": "purchased Eurofins/DiscoverX KINOMEscan scanMAX", "protocol": "as §1"}, "PIK3C2G": {"biological_target": "T29, PIK3C2G (Homo sapiens, UniProt O75747)", "T29 construct": "purchased Eurofins/DiscoverX KINOMEscan scanMAX", "protocol": "as §1"}, "PIK3CA(E545K)": {"biological_target": "T30, PIK3CA(E545K) (Homo sapiens, UniProt P42336, E545K)", "T30 construct": "purchased Eurofins/DiscoverX KINOMEscan scanMAX", "T30 sequence (P42336 whole entry E545K)": "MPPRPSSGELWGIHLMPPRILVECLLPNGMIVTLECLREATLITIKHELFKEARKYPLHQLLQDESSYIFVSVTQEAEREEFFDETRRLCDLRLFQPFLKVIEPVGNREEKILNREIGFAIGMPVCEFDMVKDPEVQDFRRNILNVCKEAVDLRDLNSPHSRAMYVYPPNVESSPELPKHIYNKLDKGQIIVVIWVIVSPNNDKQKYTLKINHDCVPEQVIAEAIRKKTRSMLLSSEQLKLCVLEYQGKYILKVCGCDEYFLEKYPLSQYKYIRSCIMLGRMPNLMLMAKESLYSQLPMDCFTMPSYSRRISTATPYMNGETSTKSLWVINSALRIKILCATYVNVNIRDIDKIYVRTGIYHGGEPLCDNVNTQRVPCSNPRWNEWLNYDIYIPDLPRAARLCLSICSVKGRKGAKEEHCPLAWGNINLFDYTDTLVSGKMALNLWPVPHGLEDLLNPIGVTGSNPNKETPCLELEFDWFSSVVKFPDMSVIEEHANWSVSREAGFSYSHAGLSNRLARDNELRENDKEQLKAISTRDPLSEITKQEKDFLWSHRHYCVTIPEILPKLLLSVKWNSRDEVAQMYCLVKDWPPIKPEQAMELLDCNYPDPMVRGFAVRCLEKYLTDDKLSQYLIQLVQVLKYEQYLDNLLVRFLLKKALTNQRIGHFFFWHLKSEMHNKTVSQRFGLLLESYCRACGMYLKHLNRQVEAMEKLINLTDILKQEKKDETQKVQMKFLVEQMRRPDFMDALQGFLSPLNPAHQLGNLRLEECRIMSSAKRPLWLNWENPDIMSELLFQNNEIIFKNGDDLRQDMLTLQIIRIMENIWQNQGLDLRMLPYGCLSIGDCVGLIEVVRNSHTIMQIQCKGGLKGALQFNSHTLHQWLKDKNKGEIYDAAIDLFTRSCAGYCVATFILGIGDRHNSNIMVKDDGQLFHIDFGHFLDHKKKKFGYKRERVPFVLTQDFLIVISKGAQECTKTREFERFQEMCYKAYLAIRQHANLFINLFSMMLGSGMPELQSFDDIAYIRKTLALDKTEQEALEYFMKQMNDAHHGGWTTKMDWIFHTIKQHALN", "protocol": "as §1"}, "PIM1": {"biological_target": "T31, PIM1 (Homo sapiens, UniProt P11309)", "T31 construct": "purchased Eurofins/DiscoverX KINOMEscan scanMAX", "protocol": "as §1"}, "PKAC-alpha": {"biological_target": "T32, PKAC-alpha (Homo sapiens, UniProt P17612)", "T32 construct": "purchased Eurofins/DiscoverX KINOMEscan scanMAX", "protocol": "as §1"}, "PLK3": {"biological_target": "T33, PLK3 (Homo sapiens, UniProt Q9H4B4)", "T33 construct": "purchased Eurofins/DiscoverX KINOMEscan scanMAX", "protocol": "as §1"}, "PLK4": {"biological_target": "T34, PLK4 (Homo sapiens, UniProt O00444)", "T34 construct": "purchased Eurofins/DiscoverX KINOMEscan scanMAX", "protocol": "as §1"}, "PRKCI": {"biological_target": "T35, PRKCI (Homo sapiens, UniProt P41743)", "T35 construct": "purchased Eurofins/DiscoverX KINOMEscan scanMAX", "protocol": "as §1"}, "ROS1": {"biological_target": "T36, ROS1 (Homo sapiens, UniProt P08922)", "T36 construct": "purchased Eurofins/DiscoverX KINOMEscan scanMAX", "protocol": "as §1"}, "[4]": {"biological_target": "T37, RSK1(Kin.Dom.2-C-terminal) (Homo sapiens, UniProt Q15418)", "T37 construct": "RSK1(Kin.Dom.2-C-terminal); purchased Eurofins/DiscoverX KINOMEscan scanMAX", "T37 sequence (Q15418 418-675 limits assumed)": "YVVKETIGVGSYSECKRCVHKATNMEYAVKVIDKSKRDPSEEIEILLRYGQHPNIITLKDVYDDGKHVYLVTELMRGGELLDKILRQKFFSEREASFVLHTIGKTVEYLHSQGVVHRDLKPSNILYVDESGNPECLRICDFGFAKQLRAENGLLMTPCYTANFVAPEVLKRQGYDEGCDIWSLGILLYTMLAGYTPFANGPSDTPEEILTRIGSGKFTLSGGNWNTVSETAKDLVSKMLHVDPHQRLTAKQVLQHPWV", "protocol": "as §1"}, "SRMS": {"biological_target": "T38, SRMS (Homo sapiens, UniProt Q9H3Y6)", "T38 construct": "purchased Eurofins/DiscoverX KINOMEscan scanMAX", "protocol": "as §1"}, "STK16": {"biological_target": "T39, STK16 (Homo sapiens, UniProt O75716)", "T39 construct": "purchased Eurofins/DiscoverX KINOMEscan scanMAX", "protocol": "as §1"}, "TAOK3": {"biological_target": "T40, TAOK3 (Homo sapiens, UniProt Q9H2K8)", "T40 construct": "purchased Eurofins/DiscoverX KINOMEscan scanMAX", "protocol": "as §1"}, "TSSK3": {"biological_target": "T41, TSSK3 (Homo sapiens, UniProt Q96PN8)", "T41 construct": "DNA tag (qPCR barcode); purchased Eurofins/DiscoverX KINOMEscan scanMAX", "protocol": "as §1"}}, "data": [{"smiles": "CN1CCN(C2CCC(n3cc(-c4ccc(Oc5ccccc5)cc4)c4c(N)ncnc43)CC2)CC1", "note": "(centres unmarked) [A-419259]", "values": [{"measurement": "% Control", "setting": "[1]", "result": 2.5, "unit": "%"}, {"measurement": "% Control", "setting": "[2]", "result": 0.5, "unit": "%"}, {"measurement": "% Control", "setting": "ACVRL1", "result": 100, "unit": "%"}, {"measurement": "% Control", "setting": "ADCK3", "result": 100, "unit": "%"}, {"measurement": "% Control", "setting": "AKT3", "result": 100, "unit": "%"}, {"measurement": "% Control", "setting": "AXL", "result": 6.1, "unit": "%"}, {"measurement": "% Control", "setting": "BLK", "result": 0.05, "unit": "%"}, {"measurement": "% Control", "setting": "BRSK2", "result": 10, "unit": "%"}, {"measurement": "% Control", "setting": "CASK", "result": 67, "unit": "%"}, {"measurement": "% Control", "setting": "CDK9", "result": 65, "unit": "%"}, {"measurement": "% Control", "setting": "CSNK1A1L", "result": 64, "unit": "%"}, {"measurement": "% Control", "setting": "DAPK1", "result": 99, "unit": "%"}, {"measurement": "% Control", "setting": "DDR1", "result": 65, "unit": "%"}, {"measurement": "% Control", "setting": "FLT3(D835Y)", "result": 7.6, "unit": "%"}, {"measurement": "% Control", "setting": "FLT3(R834Q)", "result": 2.7, "unit": "%"}, {"measurement": "% Control", "setting": "FRK", "result": 5.3, "unit": "%"}, {"measurement": "% Control", "setting": "GRK1", "result": 100, "unit": "%"}, {"measurement": "% Control", "setting": "IKK-alpha", "result": 90, "unit": "%"}, {"measurement": "% Control", "setting": "IKK-epsilon", "result": 100, "unit": "%"}, {"measurement": "% Control", "setting": "IRAK1", "result": 98, "unit": "%"}, {"measurement": "% Control", "setting": "[3]", "result": 65, "unit": "%"}, {"measurement": "% Control", "setting": "LOK", "result": 20, "unit": "%"}, {"measurement": "% Control", "setting": "MAP4K3", "result": 32, "unit": "%"}, {"measurement": "% Control", "setting": "MERTK", "result": 12, "unit": "%"}, {"measurement": "% Control", "setting": "MRCKA", "result": 98, "unit": "%"}, {"measurement": "% Control", "setting": "NEK10", "result": 100, "unit": "%"}, {"measurement": "% Control", "setting": "NEK5", "result": 100, "unit": "%"}, {"measurement": "% Control", "setting": "NIK", "result": 100, "unit": "%"}, {"measurement": "% Control", "setting": "PIK3C2G", "result": 100, "unit": "%"}, {"measurement": "% Control", "setting": "PIK3CA(E545K)", "result": 95, "unit": "%"}, {"measurement": "% Control", "setting": "PIM1", "result": 100, "unit": "%"}, {"measurement": "% Control", "setting": "PKAC-alpha", "result": 100, "unit": "%"}, {"measurement": "% Control", "setting": "PLK3", "result": 72, "unit": "%"}, {"measurement": "% Control", "setting": "PLK4", "result": 100, "unit": "%"}, {"measurement": "% Control", "setting": "PRKCI", "result": 26, "unit": "%"}, {"measurement": "% Control", "setting": "ROS1", "result": 100, "unit": "%"}, {"measurement": "% Control", "setting": "[4]", "result": 84, "unit": "%"}, {"measurement": "% Control", "setting": "SRMS", "result": 0, "unit": "%"}, {"measurement": "% Control", "setting": "STK16", "result": 100, "unit": "%"}, {"measurement": "% Control", "setting": "TAOK3", "result": 100, "unit": "%"}, {"measurement": "% Control", "setting": "TSSK3", "result": 95, "unit": "%"}]}]}
